Measurements taken from PubChem BioAssay (NCI).
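Values below derive from 48-hour exposures of cells grown in 96-well plates, with endpoints linearly interpolated between the two concentrations bracketing the appropriate inhibition level. GI50 is the concentration that inhibits growth by half. TGI marks complete inhibition of growth.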 Where a SMILES comes first, the peptide text is derived from it. The star is where a group is joined. Boc = CC(C)(C)OC(=O)*; OtBu = CC(C)(C)O*

Experiments:
Assay in all cases: NCI-60 cell line screen, 48 h
COLO 205 colon = system: COLO 205 colon
DU-145 prostate = system: DU-145 prostate
HL-60(TB) leukemia = system: HL-60(TB) leukemia
K-562 leukemia = system: K-562 leukemia
MDA-N = system: MDA-N
NCI-H226 lung = system: NCI-H226 lung
OVCAR-8 ovarian = system: OVCAR-8 ovarian
SN12C renal = system: SN12C renal
UO-31 renal = system: UO-31 renal
BT-549 breast = system: BT-549 breast
NCI-H460 lung = system: NCI-H460 lung

| SMILES | TGI (COLO 205 colon) [µM] | TGI (DU-145 prostate) [µM] | TGI (HL-60(TB) leukemia) [µM] | TGI (K-562 leukemia) [µM] | TGI (MDA-N) [µM] | TGI (NCI-H226 lung) [µM] | TGI (OVCAR-8 ovarian) [µM] | TGI (SN12C renal) [µM] | TGI (UO-31 renal) [µM] | GI50 (BT-549 breast) [µM] | TGI (BT-549 breast) [µM] | GI50 (COLO 205 colon) [µM] | GI50 (DU-145 prostate) [µM] | GI50 (HL-60(TB) leukemia) [µM] | GI50 (K-562 leukemia) [µM] | GI50 (NCI-H460 lung) [µM] | TGI (NCI-H460 lung) [µM] | GI50 (OVCAR-8 ovarian) [µM] | GI50 (SN12C renal) [µM] | GI50 (UO-31 renal) [µM] |
| --- | --- | --- | --- | --- | --- | --- | --- | --- | --- | --- | --- | --- | --- | --- | --- | --- | --- | --- | --- | --- |
| CCO/C=N\C1=C(C#N)SC2=N/C(=C\c3ccco3)C(=O)N21 | > 100 | > 100 | > 100 | > 100 | > 100 | > 100 | > 100 | > 100 | > 100 |  |  |  |  |  |  |  |  |  |  |  |
| O[C@@H]1CCCCN1Cc1cc2cc3c(cc2c2cc(OCc4ccccc4)ccc12)OCO3 | 2.66 | 3.02 | 3.57 | 4.14 |  |  | 3.03 | 2.77 | 2.89 | 1.73 | 3.31 | 1.28 | 1.63 | 1.5 | 1.45 | 1.37 | 2.76 | 1.19 | 1.42 | 1.53 |
| C=C1C(=O)O[C@H]2[C@@H]3O[C@@](C)(CC/C=C(\C)CCC[C@@H]2C)[C@H](O)C[C@@H]13 | 8.86 | 27.2 | 53 | > 100 | 10.1 | 5.89 | 17.1 | 8.15 | 11.9 |  | 8.1 |  |  |  |  |  |  |  |  |  |
| COc1cc(/C=C(\C#N)C(=O)c2ccccc2)cc(OC)c1OC | > 100 |  | > 100 | > 100 |  | > 100 | > 100 | > 100 | > 100 |  |  |  |  |  |  |  | > 100 |  |  |  |
| NCCCc1nonc1C(=O)O | > 100 | > 100 | > 100 | > 100 | > 100 | > 100 | > 100 | > 100 | > 100 |  |  |  |  |  |  |  | > 100 |  |  |  |
| CCCCCCCCCCCCOC(=N)N1CCOCC1 | 3.45 |  | 3.26 | 7.47 |  | 37.2 | 33.5 | > 52.3 | 26.8 |  |  |  |  |  |  |  | 30.2 |  |  |  |
| Nc1nc(NCc2ccccc2)cc(NCc2ccccc2)n1 | 27.3 |  | > 100 | > 100 | 5.97 | 27.5 | 17.3 | 32.4 | 21 |  | 23.5 |  |  |  |  |  | 32.5 |  |  |  |
| CCn1c(O)c(C(=O)Nc2cccs2)c(=O)n(CC)c1=S | 32.2 |  | 40 | 53.6 |  | 56.8 | 60.2 | 70.8 |  |  |  |  |  |  |  |  | 34.5 |  |  |  |
| COc1ccc(CC(COS(=O)(=O)c2ccc(C)cc2)NS(=O)(=O)c2ccc(C)cc2)cc1 (stereo unspecified) | 34.3 | 28.9 |  | > 100 | > 62.6 | 27.7 | > 100 | 36.1 | 40.2 |  | 23.7 |  |  |  |  |  | 55.2 |  |  |  |
| CC(C)(C)OC(=O)CC(NC(=O)OC(C)(C)C)C(=O)NC(Cc1ccccc1)C(N)=O (stereo unspecified) (Boc-Asp(OtBu)-Phe-NH2; configuration not given here) | > 100 | > 100 |  | > 100 | > 100 | > 100 | > 100 | > 100 | > 100 |  | > 100 |  |  |  |  |  | > 100 |  |  |  |
| COc1ccc(C2OC2C(=O)C23CC4CC(CC(C4)C2)C3)cc1 (stereo unspecified) |  | > 100 | 97.2 | > 100 | > 100 | > 100 | > 100 | > 100 | > 100 |  |  |  |  |  |  |  | > 100 |  |  |  |
| O=[N+]([O-])c1cccc(-c2ccc([C@H]3CC(c4ccc(Cl)cc4)=NN3)o2)c1 | > 100 | 50.1 | 24.1 | 55 | 66.7 | 45.8 | 27.4 | 53.4 | 40.9 |  | 74.9 |  |  |  |  |  |  |  |  |  |
| CCOc1cc(NC(C)=O)ccc1C(=O)NN1C(=O)/C(=C/c2ccc(Cl)cc2)N=C1c1ccccc1 | > 100 | > 100 | 89.6 | > 100 | > 100 | > 100 | > 100 | > 100 | > 100 |  | > 100 |  |  |  |  |  |  |  |  |  |
| Nc1cc2c(C3OC(CO)C(O)C3O)[nH]nc2c(=S)[nH]1 (stereo unspecified) | > 100 |  | > 100 | > 100 |  | > 100 | > 100 | > 100 | > 100 |  |  |  |  |  |  |  | > 100 |  |  |  |
| O=C1/C(=C/c2ccc(Cl)cc2)NC(=S)N1CN1CCCCC1 | 64.1 | > 100 |  | > 100 | > 100 | > 100 | > 100 | > 100 | > 100 |  |  |  |  |  |  |  |  |  |  |  |
| O=C(O)OC12CCCCCC1C(=O)C1CCCCC12 (stereo unspecified) | > 100 |  | > 100 | > 100 |  | > 100 | > 100 | > 100 | > 100 |  |  |  |  |  |  |  | > 100 |  |  |  |
| COc1ccc(Cc2c3cc(OC)c(OC)cc3cc[n+]2C)cc1 | > 16.7 |  | > 100 | > 100 |  | > 51.9 | > 48.6 | > 28.3 | > 51.4 |  |  |  |  |  |  |  |  |  |  |  |
| CC(=O)OCC1OC(Sc2nc(-c3ccccc3)c(C#N)c(=O)n2C2OC(COC(C)=O)C(OC(C)=O)C(OC(C)=O)C2OC(C)=O)C(OC(C)=O)C(OC(C)=O)C1OC(C)=O (stereo unspecified) | > 100 | > 100 |  | > 100 | > 100 | > 100 | > 100 | > 100 | > 100 |  | > 100 |  |  |  |  |  | > 100 |  |  |  |
| CSC(SC)=C1Sc2cccc(Cl)c2S1 | 41.3 |  | 45.9 | > 100 |  | > 100 | > 100 | > 100 | > 100 |  |  |  |  |  |  |  | > 100 |  |  |  |
| CC1CC(=O)C(CC(=O)O)[C@H]1C(C(=O)C(=O)Nc1cc(Cl)ccc1Cl)[N+](=O)[O-] (stereo partly specified) | > 100 |  | > 100 | > 100 |  | > 100 | > 100 | > 100 | > 100 |  |  |  |  |  |  |  | > 100 |  |  |  |
| COC(=O)C#CC1(O)C=CC(=O)C=C1 |  | 16.7 |  |  | > 34.5 | 20.8 | 15.4 |  | 10.6 |  | 3.42 |  |  |  |  |  | 13.9 |  |  |  |
| CC12CCC(C(=Nc3ccc([N+](=O)[O-])cc3)C1=O)C2(C)C (stereo unspecified) | 44.6 | 79.5 |  | 55.2 |  | > 100 | 55.3 |  | > 100 |  | > 100 |  |  |  |  |  | > 100 |  |  |  |
